Results on 2 compounds are retold here after publication PMC7727793, “Aggregation Behavior, Antibacterial Activity and Biocompatibility of Catanionic Assemblies Based on Amino Acid-Derived Surfactants” (International Journal of Molecular Sciences, 2020).

Data set [1] has as its system Klebsiella pneumoniae ATCC 13883. The experiment in a line: Broth microdilution MIC. The class given is cell-based. The following applies: 24 h, 37 °C, total surfactant concentration.
Data set [2] is described as follows: SAXS, core-shell model fit. It counts as physicochemical. How it is done: SAXS was measured at the Non-Crystalline Diffraction beamline at ALBA Synchrotron NCD-SWEET, Barcelona. A sample-detector distance of 2.433 m was used with 0.10 nm wavelength coupled with a Q315r detector from ADSC. The q scale was calibrated with a silver behenate sample, and data reduction was performed with the software provided by the beamline. The intensity is shown as a function of scattering vector q expressed in nm^−1. q = (4π/λ) sin(θ/2), where θ is the scattering angle and λ is the wavelength of radiation. The spectra have been fitted to lamellar models based on Gaussian description of the bilayer electronic profile for the vesicles, as described in Haba et al.. We have kept the bilayer hydrophobic profile constant along all the samples to avoid overfitting. In these conditions, the estimated error in the position of the headgroups is 2% and 5% for the width of the Gaussian. The pure histidine derivative DMHNHC14 has been fitted to a core-shell model as described in Reference. SAXS of the pure DMHNHC14 compound was measured using an in-house instrument S3-MICRO (Hecus X-ray systems GMBH, Graz, Austria) coupled to a GENIX-Fox three-dimensional (3D) X-ray source (Xenox, Grenoble, France), as described in Reference and performing the same procedures as detailed therein.

Data set [3] is classed as physicochemical. How it is done:
To check whether there was a pKa shift, we titrated the surfactant at a concentration below the CMC. The titration curve is shown in Supplementary Figure S1, where 10 mL of 1.5 mM surfactant was titrated with 3 mM NaOH.
The titration was followed using a glass electrode Orion coupled with an Orion Versastar reader (Thermo Scientific). […] 16% carbonation was determined. using Equation (1), which is derived making use of the charge and mass balances together with the acid constants of H2CO3, pK1CO2 = 6.35, pK2CO2 = 10.25 and water dissociation constant pKw = 14. (1) V = −V0Ca10^pKa−pH/1+10^pKa−pH−V0Ca+V0(1/10^pH−10^pH+pKw)/cb(1−α(1−1/1+10^pH+pK1CO2+10^2pH+pK2CO2))+(1/10^pH−10^pH+pKw) where V0 is the titrated solution initial volume, L is concentration, pKa is the searched acid constant, pkw is the minus logarithm of the water dissociation constant, Cb is the titrant concentration, α is the fraction of carbonated titrant, pK1CO2 is the first dissociation constant of CO2 and pK2CO2 is the second dissociation constant of CO2.

Another data set has as its system HeLa cell line. The experiment in a line: NRU cell viability assay. It counts as cell-based. The following applies: Homo sapiens, 24 h. The method, then:
(§1) The murine Swiss albino fibroblast (3T3), the squamous carcinoma (A431), the immortal human keratinocyte (HaCaT) and the human epithelial carcinoma (HeLa) cell lines were obtained from Celltec UB. Cells were grown in Dulbecco’s Modified Eagle’s Medium (DMEM) (4.5 g/L glucose) supplemented with 10% (v/v) fetal bovine serum (FBS), 1% (v/v) L-glutamine solution (200 mM) and 1% (v/v) penicillin-streptomycin solution (10,000 U/mL penicillin and 10 mg/mL streptomycin) at 37 °C and 5% CO2 (CO2 Incubator Nuaire, Plymouth, MN, USA). All the biological materials were purchased from Lonza (Verviers, Belgium). Cells were cultured in 75 cm^2 culture flasks (TPP, Trasadingen, Switzerland) and were routinely split using trypsin-EDTA (ethylenediaminetetraacetate) solution (170,000 U/L trypsin and 0.2 g/L EDTA) (Lonza, Verviers, Belgium) when cells are approximately 80% confluent. 3T3 and HaCaT cells (1 × 10^5 cells/ mL) and HeLa and A431 cells (5 × 10^4 cells/mL) were grown at the defined densities into the central 60 wells of a 96-well plate. Cells were incubated for 24 h under 5% CO2 at 37 °C. […] Agitation, determination of the absorbance of the extracted solution and effect of each treatment in comparison with control cells were analogous of those described in the case of the MTT method.

The test system of the next data set is A431 cell line. The data set can be described thus: NRU cell viability assay. The following applies: Homo sapiens, A-431, 24 h. It counts as cell-based. The method, then: as §1

“N(π),N(τ)-bis(methyl)-L-Histidine tetradecyl amide [DMHNHC14]”: the MIC in data set [1] amounted to 113 µM. Also, in data set [2] (from SAXS core-shell fit), the Aggregation number came out at 64 and the “Area per molecule (SAXS)” value was 0.66 nm^2. Besides, the “Hydration degree per polar head” value in data set [2] (from hydrophilic shell volume and electronic density) is reported as “about 17 water molecules”. In data set [2] (micelles of pure surfactant), the “Hydrophilic corona thickness (core-shell model)” value is 0.88 nm and the “Hydrophobic radius (core-shell model)” value was determined as 1.84 nm. In data set [3], the pKa is reported as 5.7-5.9; the “pKa calculated from the concentration and the initial solution pH” value is given as 5.4; the “pKa shift versus literature value for the histidine secondary amine” value was “about 3.3 units”.

Consider `CCCCCCCCCCCCCC(=O)O` [Sodium myristate, sodium myristate], for which the IC50 in the data set with HeLa cell line and in the data set with A431 cell line was above 50 µM each time.

As a reminder, the MIC is the lowest concentration that inhibits growth of the organism. Read a low MIC as greater potency. What is called IC50 is the midpoint of a concentration-inhibition curve. A high value points to a need for much substance.
